Measured values published in ChEMBL document CHEMBL1140040, “Synthesis and cytotoxic activity of some novel polycyclic gamma-butyrolactones” (Bioorg Med Chem Lett, 2008).

Key:
[1] = test system: DU-145; assay: Cytotoxicity against human DU145 cells assessed as age growth inhibition at 10 uM after 48 hrs by sulforhodamine B assay; assay type: functional; settings: DU-145, 48 h, read-out: GI
[2] = test system: DU-145; assay: Cytotoxicity against human DU145 cells assessed as age growth inhibition at 50 uM after 48 hrs by sulforhodamine B assay; assay type: functional; settings: DU-145, 48 h, read-out: GI
[3] = test system: HOP-62; assay: Cytotoxicity against human HOP62 cells assessed as age growth inhibition at 100 uM after 48 hrs by sulforhodamine B assay; assay type: functional; settings: HOP-62, 48 h, read-out: GI
[4] = test system: HOP-62; assay: Cytotoxicity against human HOP62 cells assessed as age growth inhibition at 50 uM after 48 hrs by sulforhodamine B assay; assay type: functional; settings: HOP-62, 48 h, read-out: GI
[5] = test system: SF-295; assay: Antiproliferative activity against human SF295 cells after 48 hrs by sulforhodamine B assay; assay type: functional, cell-based; settings: SF-295, 48 h
[6] = test system: IGROV-1; assay: Cytotoxicity against human IGROV1 cells assessed as age growth inhibition at 100 uM after 48 hrs by sulforhodamine B assay; assay type: functional; settings: IGROV-1, 48 h, read-out: GI
[7] = test system: SF-295; assay: Cytotoxicity against human SF295 cells assessed as age growth inhibition at 100 uM after 48 hrs by sulforhodamine B assay; assay type: functional; settings: SF-295, 48 h, read-out: GI
[8] = test system: SF-295; assay: Cytotoxicity against human SF295 cells assessed as age growth inhibition at 10 uM after 48 hrs by sulforhodamine B assay; assay type: functional; settings: SF-295, 48 h, read-out: GI
[9] = test system: HEp-2; assay: Cytotoxicity against human HEP2 cells assessed as age growth inhibition at 10 uM after 48 hrs by sulforhodamine B assay; assay type: functional; settings: HEp-2, 48 h, read-out: GI
[10] = test system: COLO 205; assay: Cytotoxicity against human COLO205 cells assessed as age growth inhibition at 10 uM after 48 hrs by sulforhodamine B assay; assay type: functional; settings: COLO 205, 48 h, read-out: GI
[11] = test system: COLO 205; assay: Cytotoxicity against human COLO205 cells assessed as age growth inhibition at 50 uM after 48 hrs by sulforhodamine B assay; assay type: functional; settings: COLO 205, 48 h, read-out: GI
[12] = test system: COLO 205; assay: Antiproliferative activity against human COLO205 cells after 48 hrs by sulforhodamine B assay; assay type: functional, cell-based; settings: COLO 205, 48 h
[13] = test system: SK-OV-3; assay: Cytotoxicity against human SKOV3 cells assessed as age growth inhibition at 50 uM after 48 hrs by sulforhodamine B assay; assay type: functional; settings: SK-OV-3, 48 h, read-out: GI
[14] = test system: IGROV-1; assay: Cytotoxicity against human IGROV1 cells assessed as age growth inhibition at 10 uM after 48 hrs by sulforhodamine B assay; assay type: functional; settings: IGROV-1, 48 h, read-out: GI
[15] = test system: DU-145; assay: Cytotoxicity against human DU145 cells assessed as age growth inhibition at 100 uM after 48 hrs by sulforhodamine B assay; assay type: functional; settings: DU-145, 48 h, read-out: GI
[16] = test system: A549; assay: Cytotoxicity against human A549 cells assessed as age growth inhibition at 10 uM after 48 hrs by sulforhodamine B assay; assay type: functional; settings: A549, 48 h, read-out: GI
[17] = test system: HCT-15; assay: Cytotoxicity against human HCT15 cells assessed as age growth inhibition at 100 uM after 48 hrs by sulforhodamine B assay; assay type: functional; settings: HCT-15, 48 h, read-out: GI
[18] = test system: A549; assay: Cytotoxicity against human A549 cells assessed as age growth inhibition at 50 uM after 48 hrs by sulforhodamine B assay; assay type: functional; settings: A549, 48 h, read-out: GI
[19] = test system: HOP-62; assay: Cytotoxicity against human HOP62 cells assessed as age growth inhibition at 10 uM after 48 hrs by sulforhodamine B assay; assay type: functional; settings: HOP-62, 48 h, read-out: GI
[20] = test system: HEp-2; assay: Antiproliferative activity against human HEP2 cells after 48 hrs by sulforhodamine B assay; assay type: functional, cell-based; settings: HEp-2, 48 h
[21] = test system: SK-OV-3; assay: Cytotoxicity against human SKOV3 cells assessed as age growth inhibition at 100 uM after 48 hrs by sulforhodamine B assay; assay type: functional; settings: SK-OV-3, 48 h, read-out: GI
[22] = test system: HCT-15; assay: Cytotoxicity against human HCT15 cells assessed as age growth inhibition at 50 uM after 48 hrs by sulforhodamine B assay; assay type: functional; settings: HCT-15, 48 h, read-out: GI
[23] = test system: SK-OV-3; assay: Cytotoxicity against human SKOV3 cells assessed as age growth inhibition at 10 uM after 48 hrs by sulforhodamine B assay; assay type: functional; settings: SK-OV-3, 48 h, read-out: GI
[24] = test system: IGROV-1; assay: Antiproliferative activity against human IGROV1 cells after 48 hrs by sulforhodamine B assay; assay type: functional, cell-based; settings: IGROV-1, 48 h
[25] = test system: A549; assay: Antiproliferative activity against human A549 cells after 48 hrs by sulforhodamine B assay; assay type: functional, cell-based; settings: A549, 48 h
[26] = test system: HEp-2; assay: Cytotoxicity against human HEP2 cells assessed as age growth inhibition at 50 uM after 48 hrs by sulforhodamine B assay; assay type: functional; settings: HEp-2, 48 h, read-out: GI
[27] = test system: IGROV-1; assay: Cytotoxicity against human IGROV1 cells assessed as age growth inhibition at 50 uM after 48 hrs by sulforhodamine B assay; assay type: functional; settings: IGROV-1, 48 h, read-out: GI
[28] = test system: HOP-62; assay: Antiproliferative activity against human HOP62 cells after 48 hrs by sulforhodamine B assay; assay type: functional, cell-based; settings: HOP-62, 48 h
[29] = test system: A549; assay: Cytotoxicity against human A549 cells assessed as age growth inhibition at 100 uM after 48 hrs by sulforhodamine B assay; assay type: functional; settings: A549, 48 h, read-out: GI
[30] = test system: SK-OV-3; assay: Antiproliferative activity against human SKOV3 cells after 48 hrs by sulforhodamine B assay; assay type: functional, cell-based; settings: SK-OV-3, 48 h
[31] = test system: HCT-15; assay: Antiproliferative activity against human HCT15 cells after 48 hrs by sulforhodamine B assay; assay type: functional, cell-based; settings: HCT-15, 48 h
[32] = test system: DU-145; assay: Antiproliferative activity against human DU145 cells after 48 hrs by sulforhodamine B assay; assay type: functional, cell-based; settings: DU-145, 48 h
[33] = test system: SF-295; assay: Cytotoxicity against human SF295 cells assessed as age growth inhibition at 50 uM after 48 hrs by sulforhodamine B assay; assay type: functional; settings: SF-295, 48 h, read-out: GI
[34] = test system: HCT-15; assay: Cytotoxicity against human HCT15 cells assessed as age growth inhibition at 10 uM after 48 hrs by sulforhodamine B assay; assay type: functional; settings: HCT-15, 48 h, read-out: GI
[35] = test system: COLO 205; assay: Cytotoxicity against human COLO205 cells assessed as age growth inhibition at 100 uM after 48 hrs by sulforhodamine B assay; assay type: functional; settings: COLO 205, 48 h, read-out: GI
[36] = test system: HEp-2; assay: Cytotoxicity against human HEP2 cells assessed as age growth inhibition at 100 uM after 48 hrs by sulforhodamine B assay; assay type: functional; settings: HEp-2, 48 h, read-out: GI

Row | IC50 [12] | Compound | inhibition of growth at 10 µM [1] | inhibition of growth at 50 µM [2] | inhibition of growth at 100 µM [3] | inhibition of growth at 50 µM [4] | IC50 [5] | inhibition of growth at 100 µM [6] | inhibition of growth at 100 µM [7] | inhibition of growth at 10 µM [8] | inhibition of growth at 10 µM [9] | inhibition of growth at 10 µM [10] | inhibition of growth at 50 µM [11] | inhibition of growth at 50 µM [13] | inhibition of growth at 10 µM [14] | inhibition of growth at 100 µM [15] | inhibition of growth at 10 µM [16] | inhibition of growth at 100 µM [17] | inhibition of growth at 50 µM [18] | inhibition of growth at 10 µM [19] | IC50 [20] | further results
1 | 99.2 µM | COc1ccc([C@H]2OC(=O)[C@@H]3C=C4C(C)(C)CCC[C@]4(C)[C@H]23)cc1 | 8% | 12% | 52% | 30% | > 100 µM | 51% | 16% | 0% | 3% | 0% | 15% | 0% | 3% | 43% | 8% | 55% | 31% | 10% | > 100 µM | inhibition of growth at 100 µM [21]: 21%; inhibition of growth at 50 µM [22]: 45%; inhibition of growth at 10 µM [23]: 0%; IC50 [24]: 94.2 µM; IC50 [25]: 89.1 µM; inhibition of growth at 50 µM [26]: 23%; inhibition of growth at 50 µM [27]: 30%; IC50 [28]: 94.8 µM; inhibition of growth at 100 µM [29]: 55%; IC50 [30]: > 100 µM; IC50 [31]: 77.1 µM; IC50 [32]: > 100 µM; inhibition of growth at 50 µM [33]: 16%; inhibition of growth at 10 µM [34]: 16%; inhibition of growth at 100 µM [35]: 52%; inhibition of growth at 100 µM [36]: 27%
2 | > 100 µM | CC1(C)CCC[C@@]2(C)C1=C[C@H]1C(=O)O[C@H](c3ccc(C#N)cc3)[C@H]12 | 16% | 22% | 18% | 9% | > 100 µM | 29% | 20% | 12% | 5% | 2% | 24% | 25% | 6% | 25% | 15% | 30% | 24% | 5% | > 100 µM | inhibition of growth at 100 µM [21]: 27%; inhibition of growth at 50 µM [22]: 25%; inhibition of growth at 10 µM [23]: 17%; IC50 [24]: > 100 µM; IC50 [25]: > 100 µM; inhibition of growth at 50 µM [26]: 18%; inhibition of growth at 50 µM [27]: 25%; IC50 [28]: > 100 µM; inhibition of growth at 100 µM [29]: 25%; IC50 [30]: > 100 µM; IC50 [31]: > 100 µM; IC50 [32]: > 100 µM; inhibition of growth at 50 µM [33]: 17%; inhibition of growth at 10 µM [34]: 14%; inhibition of growth at 100 µM [35]: 24%; inhibition of growth at 100 µM [36]: 19%
3 | > 100 µM | CC1(C)CCC[C@@]2(C)C1=C[C@H]1C(=O)O[C@H](c3ccc(Br)cc3)[C@H]12 | 21% | 27% | 66% | 55% | > 100 µM | 30% | 21% | 0% | 3% | 14% | 14% | 28% | 7% | 28% | 8% | 40% | 10% | 0% | > 100 µM | inhibition of growth at 100 µM [21]: 52%; inhibition of growth at 50 µM [22]: 32%; inhibition of growth at 10 µM [23]: 6%; IC50 [24]: > 100 µM; IC50 [25]: > 100 µM; inhibition of growth at 50 µM [26]: 18%; inhibition of growth at 50 µM [27]: 26%; IC50 [28]: 49.5 µM; inhibition of growth at 100 µM [29]: 26%; IC50 [30]: 95.1 µM; IC50 [31]: > 100 µM; IC50 [32]: > 100 µM; inhibition of growth at 50 µM [33]: 18%; inhibition of growth at 10 µM [34]: 7%; inhibition of growth at 100 µM [35]: 32%; inhibition of growth at 100 µM [36]: 22%
